Experimental data from patent US7355063B2, “Shogaol compound and tyrosinase activity inhibitor comprising the compound” (Toagosei Co., Ltd., priority 2003, dated 2008).
Values belong to the compound of their own block, whether it stands above or below them.

Key:
mushroom tyrosinase [1] = assay: Tyrosinase activity inhibition test using L-dopa as substrate (Test Examples 3 to 6, microplate reader, 490 nm); type: biochemical
Description: (§1) Using the compound 37 obtained in Example 21, the compound 38 obtained in Example 22, the compound 39 obtained in Example 23, and arbutin (manufactured by Tokyo Kasei Kogyo Co., Ltd.) as a comparative control, a tyrosinase activity inhibition test was carried out using L-dopa as a substrate.
The specific test procedures are as follows. • (1) 72 μl of a phosphate buffer prepared by dissolving 1.000 g of sodium dihydrogen phosphate and 1.186 g of disodium hydrogen phosphate in 500 ml of distilled water, 80 μl of a substrate solution prepared by dissolving 32.7 mg of L-DOPA in 200 ml of distilled water, and 8 μl of a test solution prepared by dissolving the test compound in dimethyl sulfoxide were mixed together. • (2) 80 μl of an enzyme solution prepared by dissolving 3.0 mg (2400 units; manufactured by Sigma Corporation) of mushroom tyrosinase in 7.0 ml of distilled water and diluting the solution with the above phosphate buffer so as to make it five times in amount was added to the solution prepared in (1), and the whole was stirred for 15 seconds. The resulting solution was maintained at 25° C., and the absorbance at 490 nm was measured by a microplate reader one minute and 45 seconds later and 2 minutes and 45 seconds later. • (3) The test operations in the above (1) and (2) were conducted four times for the individual test compounds and blank test (only dimethyl sulfoxide), and the resulting numeric value was inserted in the following calculation formula and a mean value thereof was regarded as a tyrosinase activity inhibition ratio (%). Tyrosinase activity inhibition ratio (%)=[(T^1−T^2)/T^1]×100 • T^1=difference in absorbance of solution with addition of no test compound between 2 minutes and 45 seconds later and one minute and 45 seconds later • T^2=difference in absorbance of solution with addition of test compound was added between 2 minutes and 45 seconds later and one minute and 45 seconds later
(§2) Using the compound 42 obtained in Example 26, the compound 45 obtained in Example 29, the compound 46 obtained in Example 30, and arbutin (manufactured by Tokyo Kasei Kogyo Co., Ltd.) as a comparative control, a tyrosinase activity inhibition test was carried out using L-dopa as a substrate. The test procedure was in accordance with Test Example 3.
as §2, with “34” for “42”, “18,” for “26,”, “47” for “45”, “31,” for “29, the compound 46 obtained in Example 30,”
Using the compound 48 obtained in Example 32 and arbutin (manufactured by Tokyo Kasei Kogyo Co., Ltd.) as a comparative control, a tyrosinase activity inhibition test was carried out using L-dopa as a substrate. The test procedure was in accordance with Test Example 3.

mushroom tyrosinase [2] = assay: Tyrosinase activity inhibition test using L-dopa as substrate (Test Examples 1 and 2, absorbance at 475 nm); type: biochemical
Description: as §1, with “7” for “37”, “2,” for “21,”, “13” for “38”, “5, a mixture of” for “22,”, “18 and the compound 19 (existing molar ratio 45:55)” for “39”, “7,” for “23,”
The specific test procedures are as follows. • (1) 1.80 ml of a phosphate buffer prepared by dissolving 1.000 g of sodium dihydrogen phosphate and 1.186 g of disodium hydrogen phosphate in 500 ml of distilled water, 1.00 ml of a substrate solution prepared by dissolving 32.7 mg of L-DOPA in 200 ml of distilled water, and 0.10 ml of a test solution prepared by dissolving the test compound in dimethyl sulfoxide were mixed together. • (2) 0.10 ml of an enzyme solution prepared by dissolving 3.0 mg (2400 units; manufactured by Sigma Corporation) of mushroom tyrosinase in 7.0 ml of distilled water was added to the solution prepared in (1), and the whole was stirred for 15 seconds. The resulting solution was maintained at 25° C., and the absorbance at 475 nm was measured one minute and 45 seconds later and 2 minutes and 45 seconds later. • (3) The test operations in the above (1) and (2) were conducted three times for the individual test compounds and blank test (only dimethyl sulfoxide), and the resulting numeric value was inserted in the following calculation formula and a mean value thereof was regarded as a tyrosinase activity inhibition ratio (%). Tyrosinase activity inhibition ratio (%)=[(T^1−T^2)/T^1]×100 • T^1=difference in absorbance of solution with addition of no test compound between 2 minutes and 45 seconds later and one minute and 45 seconds later • T^2=difference in absorbance of solution with addition of test compound was added between 2 minutes and 45 seconds later and one minute and 45 seconds later
Using the compound 40 obtained in Example 24 and arbutin (manufactured by Tokyo Kasei Kogyo Co., Ltd.) as a comparative control, a tyrosinase activity inhibition test was carried out using L-dopa as a substrate. The test procedure was in accordance with Test Example 1.

[3] = biological target: T1, hyaluronic acid-degrading enzyme (derived from bovine testicles, Type IV-S) (Bos taurus, UniProt Q2YDK3); assay: Hyaluronic acid-degrading enzyme activity inhibition test; type: biochemical
T1 construct: derived from bovine testicles manufactured by Sigma Corporation, Type IV-S; purchased Sigma Corporation Type IV-S; host or cells: bovine testicles
T1 sequence (Q2YDK3 36-553): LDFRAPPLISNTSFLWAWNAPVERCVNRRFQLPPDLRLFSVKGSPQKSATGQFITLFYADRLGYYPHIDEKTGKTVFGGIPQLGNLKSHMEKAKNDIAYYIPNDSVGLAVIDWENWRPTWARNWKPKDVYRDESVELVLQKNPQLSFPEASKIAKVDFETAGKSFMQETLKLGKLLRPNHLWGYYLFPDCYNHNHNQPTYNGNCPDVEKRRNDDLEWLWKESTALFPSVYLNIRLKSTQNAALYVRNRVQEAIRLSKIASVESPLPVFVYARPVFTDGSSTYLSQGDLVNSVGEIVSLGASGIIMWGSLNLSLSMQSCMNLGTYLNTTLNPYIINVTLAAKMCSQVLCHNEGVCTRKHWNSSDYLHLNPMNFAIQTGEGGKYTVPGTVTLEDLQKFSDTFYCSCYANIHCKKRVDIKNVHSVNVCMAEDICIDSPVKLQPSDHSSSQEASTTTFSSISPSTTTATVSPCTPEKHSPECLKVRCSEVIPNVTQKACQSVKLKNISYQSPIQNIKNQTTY
Description: Using the compound 7 obtained in Example 2, the compound 34, and magnesium ascorbate phosphate as a comparative control, a hyaluronic acid-degrading enzyme activity inhibition test was carried out.
First, the following solutions shown in A to H were each prepared. • A: 0.1M acetate buffer solution was prepared by dissolving 0.60 g of acetic acid in 100 ml of distilled water. • B: A hyaluronidase solution was prepared by dissolving 7.2 mg of a hyaluronic acid-degrading enzyme (derived from bovine testicles manufactured by Sigma Corporation, Type IV-S) into 3.0 ml of the acetate buffer (prepared in the above A). • C: An activator solution was prepared by dissolving 1.0 mg of compound 48/80 (a hyaluronidase activator manufactured by Sigma Corporation) into 10.0 ml of the acetate buffer (prepared in the above A). • D: A hyaluronic acid solution was prepared by dissolving 12.0 mg of potassium hyaluronate (manufactured by Wako Pure Chemical Industries, Ltd.) into 15.0 ml of the acetate buffer (prepared in the above A). • E: A 0.4N sodium hydroxide aqueous solution was prepared by dissolving 1.60 g of sodium hydroxide into 100 ml of distilled water. • F: After 4.95 g of boric acid was dissolved into 50 ml of distilled water, a 1N sodium hydroxide aqueous solution was added until pH reached 9.1. Subsequently, the whole amount was made 100 ml by adding distilled water. • G: 1.0 g of p-dimethylaminobenzaldehyde, 1.25 ml of 10N hydrochloric acid, and 8.75 ml of acetic acid were mixed. The solution was used after the whole amount was made 100 ml by adding acetic acid immediately before use. • H: Each test compound was dissolved in the acetate buffer (prepared in the above A) so the final test concentration became 0.5 mg/ml and 1.0 mg/ml.
Next, the experimental operation was carried out with the procedures shown in the following (1) to (8).
(1) 0.2 ml of the test compound solution (prepared in the above H) and 0.1 ml of the hyaluronic acid-degrading enzyme solution (prepared in the B) were mixed and the whole was incubated at 37° C. for 20 minutes.
(2) To the above reaction solution was added 0.2 ml of the activator solution (prepared in the above C) and the whole was incubated at 37° C. for 20 minutes.
(3) To the above reaction solution was added 0.5 ml of the hyaluronic acid solution (prepared in the above D), and the whole was incubated at 37° C. for 40 minutes.
(4) To the above reaction solution was added 0.2 ml of the 0.4N sodium hydroxide aqueous solution (prepared in the above E), and the whole was cooled in an ice bath.
(5) To the above reaction solution was added 0.2 ml of the boric acid solution (prepared in the above F), and the whole was heated at 100° C. for 3 minutes.
(6) The above reaction solution was cooled in an ice bath.
(7) To the above reaction solution was added 3.0 ml of the p-dimethylaminobenzaldehyde solution (prepared in the above G), and the whole was incubated at 37° C. for 20 minutes.
(8) Absorbance of the reaction solution at 585 nm was measured using a spectrophotometer.
The above experimental operations were repeated three times, and the resulting numeric value was inserted in the following calculation formula and a mean value thereof was regarded as a hyaluronic acid-degrading enzyme activity inhibition ratio (%). Hyaluronic acid-degrading enzyme activity inhibition ratio (%)=(A−B)/A×100
A=absorbance obtained at the time when operation was carried out with addition of no test compound
B=absorbance obtained at the time when operation was carried out with addition of test compound
The compounds of the invention and magnesium ascorbate phosphate were each used in an enzymatic reaction solution in amounts of 0.1 mg/ml, 0.2 mg/ml, and 0.4 mg/ml, and the results were shown in Table 7 (since the compound 7 was not dissolved in a concentration of 0.4 mg/ml, the test was not carried out).

[4] = Test of scavenging DPPH radical (Test Example 9, microplate reader, 540 nm); conditions: final concentration of 25 μg/mL; 20 minutes, room temperature
Source text: Using the compound 36 obtained in Example 20, the compound 37 obtained in Example 21, the compound 38 obtained in Example 22, the compound 39 obtained in Example 23, the compound 40 obtained in Example 24, the compound 42 obtained in Example 26, the compound 45 obtained in Example 29, the compound 46 obtained in Example 30, the compound 48 obtained in Example 32 and, as a comparative control, dl-α-tocopherol (manufactured by Tokyo Kasei Kogyo Co., Ltd.), a test of scavenging DDPH (1,1-diphenyl-2-picrylhydrazyl) radical, a stable radical, was carried out.
100 μl of 800 μM DPPH ethanol solution was added to 80 μl of 100 mM Tris-HCl buffer (pH 7.4) and 20 μl of an ethanol solution of the compound 36 (final concentration of 25 μg/mL), followed by sufficient stirring. After the resulting mixture was allowed to stand in a dark place at room temperature for 20 minutes, the absorbance at 540 nm was measured on a microplate reader (absorbance of the test solution).
The compounds 37, 38, 39, 40, 42, 45, 46, and 48 of the invention as well as dl-α-tocopherol as a known radical scavenger were similarly tested.
As a control, using 80 μl of 100 mM Tris-HCl buffer (pH 7.4), 20 μl of ethanol, and 100 μl of 800 μM DPPH ethanol solution, the same operation was carried out as described above and the absorbance was measured (absorbance of the control solution).
With the individual compounds, the same measurement was repeated four times, and the mean value was inserted in the following formula to calculate a DPPH radical-scavenging ratio. DPPH radical-scavenging ratio (%)=[1−(absorbance of sample solution/absorbance of control solution)]×100

Compound: OC[C@H]1O[C@@H](Oc2ccc(O)cc2)[C@H](O)[C@@H](O)[C@@H]1O [Arbutin, arbutin, reference compound]
Tyrosinase activity inhibition ratio (%) (mushroom tyrosinase [1]; 0.031 mg/mL, Table 4): 10.7% | Tyrosinase activity inhibition ratio (%) (mushroom tyrosinase [1]; 0.063 mg/mL, Table 4): 17.7% | Tyrosinase activity inhibition ratio (%) (mushroom tyrosinase [1]; 0.125 mg/mL, Table 4): 24.7% | Tyrosinase activity inhibition ratio (%) (mushroom tyrosinase [1]; 0.25 mg/mL, Table 6, 0.50 mg/mL): 35.8% | Tyrosinase activity inhibition ratio (%) (mushroom tyrosinase [1]; 0.5 mg/mL, Table 3): 35.0% | Tyrosinase activity inhibition ratio (%) (mushroom tyrosinase [1]; 0.5 mg/mL, Table 6, 0.50 mg/mL): 42.6% | Tyrosinase activity inhibition ratio (%) (mushroom tyrosinase [1]; 1 mg/mL, Table 3): 41.6% | Tyrosinase activity inhibition ratio (%) (mushroom tyrosinase [1]; 1.00 mg/ml, Table 5): 45.6% | Tyrosinase activity inhibition ratio (%) (mushroom tyrosinase [2]; 0.125 mg/mL, Table 2): 23.1% | Tyrosinase activity inhibition ratio (%) (mushroom tyrosinase [2]; 0.25 mg/mL, Table 2): 28.5% | Tyrosinase activity inhibition ratio (%) (mushroom tyrosinase [2]; 0.5 mg/mL in enzymatic reaction solution, Table 1): 36.2% | Tyrosinase activity inhibition ratio (%) (mushroom tyrosinase [2]; 0.5 mg/mL, Table 2): 34.6% | Tyrosinase activity inhibition ratio (%) (mushroom tyrosinase [2]; 1 mg/mL in enzymatic reaction solution, Table 1): 42.2%

Compound: COC(=O)CCCCCCC(CC(=O)CCc1ccc(O)c(OC)c1)OC (stereo not shown) [Compound 36]
DPPH radical-scavenging ratio (%) [4]: 31.7%

Compound: COc1cc(CCC(=O)CCCCCCCCCO)ccc1O [Compound 46]
DPPH radical-scavenging ratio (%) [4]: 39.4% | Tyrosinase activity inhibition ratio (%) (mushroom tyrosinase [1]; 0.031 mg/mL, Table 4): 14.9% | Tyrosinase activity inhibition ratio (%) (mushroom tyrosinase [1]; 0.063 mg/mL, Table 4): 23.8% | Tyrosinase activity inhibition ratio (%) (mushroom tyrosinase [1]; 0.125 mg/mL, Table 4): 36.9%

Compound: magnesium ascorbate phosphate [reference compound]
Hyaluronic acid-degrading enzyme activity inhibition ratio (%) ([3]; 0.1 mg/mL): 3.3% | Hyaluronic acid-degrading enzyme activity inhibition ratio (%) ([3]; 0.2 mg/mL): 4.2% | Hyaluronic acid-degrading enzyme activity inhibition ratio (%) ([3]; 0.4 mg/mL): 7.6%

Further lines, with some results ahead:

Hyaluronic acid-degrading enzyme activity inhibition ratio (%) ([3]; 0.1 mg/mL): 12.1% | Hyaluronic acid-degrading enzyme activity inhibition ratio (%) ([3]; 0.2 mg/mL): 31.6% | Hyaluronic acid-degrading enzyme activity inhibition ratio (%) ([3]; 0.4 mg/mL): 81.3% | Tyrosinase activity inhibition ratio (%) (mushroom tyrosinase [1]; 1.00 mg/ml, Table 5): 60.1%
Compound: COc1cc(CCC(=O)CC(O)CCCCCCC(=O)O)ccc1O (stereo not shown) [Compound 34]

Tyrosinase activity inhibition ratio (%) (mushroom tyrosinase [1]; 0.5 mg/mL, Table 3): 48.6% | Tyrosinase activity inhibition ratio (%) (mushroom tyrosinase [1]; 1 mg/mL, Table 3): 67.7%
Compound: COc1cc(CCC(O)/C=C/CCCCCCC(=O)O)ccc1O (stereo not shown) [Compound 37]
DPPH radical-scavenging ratio (%) [4]: 37.6%

Tyrosinase activity inhibition ratio (%) (mushroom tyrosinase [1]; 0.5 mg/mL, Table 3): 51.3% | Tyrosinase activity inhibition ratio (%) (mushroom tyrosinase [1]; 1 mg/mL, Table 3): 75.2%
Compound: COc1cc(CCC(O)CCCCCCCCC(=O)O)ccc1O (stereo not shown) [Compound 39]
DPPH radical-scavenging ratio (%) [4]: 33.8%
